Assay results: PMC4077001, “Purification and characterization of a novel lipopeptide from Streptomyces amritsarensis sp. nov. active against methicillin-resistant Staphylococcus aureus” (AMB Express, 2014)
Converted amounts (≈) assume the structure as drawn. Ends that are not written are not given here.

Tests used:
[1] = system: Chinese hamster ovary (CHO) cell line; test: cells; format: cell-based; details: 48 h; for growth inhibition: SRB, OD 540 nm
Procedure: In vitro cytotoxicity was evaluated using sulforhodamine B dye assay (Skehan et al. [1990]). The Chinese hamster ovary cell line (CHO) was used for the assay. Camptothecin (CPT), an anticancer drug was used as standard. The 96-well tissue culture plate, containing different concentrations of lipopeptide (2.5- 25 μg/ml) and CHO cells, was incubated for 48 h and the cell growth was stopped with trichloroacetic acid (50% TCA, 50 μl). The optical density (OD) was recorded at 540 nm on ELISA reader and percent growth inhibition was calculated.

[2] = system: Salmonella typhimurium (TA98); test: Ames test (Salmonella reverse mutation test); format: cell-based
Procedure: Mutagenicity of the lipopeptide was evaluated by Ames test (Maron and Ames [1983]). This Salmonella reverse mutation test is based on histidine dependence and mutations in Salmonella typhimurium (TA98/ MTCC 1251, IMTECH, Chandigarh). Concentrations of the lipopeptide used for checking toxicity were 50 and 100 μg 0.1 ml^−1 plate^−1. The overnight grown, 0.1 ml bacterial culture and 0.1 ml of lipopeptide were added to 2.0 ml of top agar. The contents were mixed and poured onto glucose minimal agar plates immediately. The plates were […] incubated at 37°C for 48 h. The experiment was repeated to confirm the results. To determine the spontaneous reversion which is characteristic of the tester strain (TA 98), negative control (0.1 ml bacterial culture + 0.1 ml DMSO plate^−1) was run while 4-Nitro-o-phenylenediamine (20 μg 0.1 ml^−1 plate^−1) was used as a positive control mutagen. The mutagenic potential of the lipopeptide was determined by comparing the number of colonies with control plates where no test compound was added.

[3] = system: Staphylococcus epidermidis (MTCC 435); test: Kirby-Bauer disk diffusion susceptibility test; format: cell-based; details: 10 μg lipopeptide per 6 mm disc, Mueller-Hinton agar, 24-48 h; duplicates, repeated thrice
Procedure: (§1) Sensitivity of test organisms to purified lipopeptide was measured in terms of zone of inhibition using Kirby-Bauer disk diffusion susceptibility test (Bauer et al. [1966]). The plates containing Mueller-Hinton agar, yeast malt agar and potato dextrose agar were seeded with test bacteria, yeasts and fungi, respectively. Filter paper discs (6 mm) impregnated with 10 μg of lipopeptide were placed on media plates. The diameter of the resultant zone of inhibition was measured in mm after 24- 48 hours of incubation. Each experiment was performed in duplicates and repeated thrice. Various test organisms used in the study included Bacillus subtilis (MTCC 619), Mycobacterium smegmatis (MTCC 6), Staphylococcus epidermidis (MTCC 435), Escherichia coli (MTCC 1885), Klebsiella pneumoniae sub sp. pneumoniae (MTCC 109), Enterobacter aerogenes (MTCC 111), Salmonella typhi (MTCC 733), multi-drug resistant E. coli, MRSA, VRE, Candida albicans (MTCC 3017), Rhodotorula rubra (MTCC 248), Colletotrichum acutatum (MTCC 1037), Cercospora beticola (GenBank acc. no. KJ461435), Fusarium oxysporum f.sp. dianthi (MTCC 6659), and Alternaria brassicicola (MTCC 2102).

[4] = system: tested Gram-negative bacteria; test: Kirby-Bauer disk diffusion susceptibility test; format: cell-based; details: 10 μg per disc
Procedure: as §1

[5] = system: Mycobacterium smegmatis (MTCC 6); test: Kirby-Bauer disk diffusion susceptibility test; format: cell-based; details: 10 μg lipopeptide per 6 mm disc, Mueller-Hinton agar, 24-48 h; duplicates, repeated thrice
Procedure: as §1

[6] = system: Bacillus subtilis (MTCC 619); test: Kirby-Bauer disk diffusion susceptibility test; format: cell-based; details: 10 μg lipopeptide per 6 mm disc, Mueller-Hinton agar, 24-48 h; duplicates, repeated thrice
Procedure: as §1

fungi = test: Kirby-Bauer disk diffusion susceptibility test; format: cell-based; details: 10 μg per disc
Procedure: as §1

Heat stability assay = format: physicochemical; details: for Residual activity (%): residual antimicrobial activity
Excerpt: (§2) All enzymes were purchased from Sigma Aldrich.

[7] = Surface tension, Du-Nouy-Ring method; format: physicochemical; details: lipopeptide 0.2% (w/v), lowered from 72
Procedure: (§3) Biosurfactant property of lipopeptide was determined using the qualitative drop-collapse test (Youssef et al. [2004]). In this method, mineral oil (2 μl) was added to 96-well microtitre plate. The plate was equilibrated for 1 h at 37°C and 5 μl of the lipopeptide (10 μg, dissolved in water) was added to the surface of the oil and drop shape was observed after 1 min. The surface tension of a lipopeptide (0.2%, w/v) was measured using Du-Nouy-Ring method (Du Noüy and Pierre [1925]).

[8] = system: Staphylococcus epidermidis (MTCC 435); test: MIC, microtiter plate dilution assay; format: cell-based; details: 37°C, OD 600 nm at 24 and 48 h, triplicates
Procedure: (§4) The MIC of purified lipopeptide was evaluated by using a microtiter plate dilution assay. Test bacteria were grown to logarithmic phase under optimal conditions (up to 0.3 OD) and the test was performed in triplicates. To each well of the microtiter plate, 200 μl of fresh nutrient medium and 50 μl of bacterial suspension were added. Subsequently, different dilutions (50 μl) of freshly prepared samples were added to each well. The first column of the microtiter plate was left as a blank, containing fresh medium only. The microtiter plates were incubated at 37°C and OD was measured at 600 nm at 24 and 48 h using ELISA microplate reader (Bio-rad, Model 680XR).

[9] = system: Mycobacterium smegmatis (MTCC 6); test: MIC, microtiter plate dilution assay; format: cell-based; details: 37°C, OD 600 nm at 24 and 48 h, triplicates
Procedure: as §4

[10] = system: Bacillus subtilis (MTCC 619); test: MIC, microtiter plate dilution assay; format: cell-based; details: 37°C, OD 600 nm at 24 and 48 h, triplicates
Procedure: as §4

[11] = system: Methicillin Resistant Staphylococcus aureus (MRSA); test: MIC, microtiter plate dilution assay; format: cell-based; details: clinical strain, 37°C, OD 600 nm at 24 and 48 h, triplicates
Procedure: as §4

MRSA = test: Kirby-Bauer disk diffusion susceptibility test; format: cell-based, Staphylococcus aureus; details: clinical isolate; 10 μg lipopeptide per 6 mm disc, Mueller-Hinton agar, 24-48 h; duplicates, repeated thrice
Procedure: as §1

lipase [12] = details: lipopeptide 1.0 mg/ml + lipase (~9 U/mg) 1.0 mg/ml in 50 mM phosphate buffer pH 7.0, equal volumes (20 μl each), 37°C, 12 h; residual activity by disc diffusion
Procedure: (§5) Sensitivity to temperature was determined by incubating the purified lipopeptide at different temperatures viz. 50°C, 60°C, 70°C, 80°C , 90°C, 100°C and 121°C for different durations. To determine the optimum pH for activity, purified compound was incubated over pH range of 3.0–12.0 for 30 min at 37°C. The sensitivity of the lipopeptide (1.0 mg/ml) to enzymes was tested against proteinase K (~30 U/mg), trypsin (~10,000 U/mg) and lipase (~9 U/mg). All enzymes were purchased from Sigma Aldrich. Enzyme solutions were prepared at 1.0 mg/ml in 50 mM phosphate buffer (pH 7.0). Equal volumes of enzyme solution and antimicrobial compound (20 μl each) were mixed and incubated at 37°C for 12 h. The enzyme reaction was terminated by heating reaction mixture at 80°C and residual activity was determined by disc diffusion method.

trypsin [13] = molecular target: T1, trypsin (Bos taurus, UniProt P00760); details: lipopeptide 1.0 mg/ml + trypsin (~10,000 U/mg) 1.0 mg/ml in 50 mM phosphate buffer pH 7.0, equal volumes (20 μl each), 37°C, 12 h; residual activity by disc diffusion
T1 sequence (P00760 24-246): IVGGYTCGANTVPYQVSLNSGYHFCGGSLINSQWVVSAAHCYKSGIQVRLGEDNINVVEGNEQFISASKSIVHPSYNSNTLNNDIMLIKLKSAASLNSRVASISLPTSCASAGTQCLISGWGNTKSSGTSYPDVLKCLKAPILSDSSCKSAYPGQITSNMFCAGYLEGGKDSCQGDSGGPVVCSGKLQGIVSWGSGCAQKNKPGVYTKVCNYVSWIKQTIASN
Procedure: as §5

proteinase K = molecular target: T2, proteinase K (Parengyodontium album, UniProt P06873); test: Sensitivity to enzymes; format: in vitro ADME; details: lipopeptide 1.0 mg/ml + proteinase K (~30 U/mg) 1.0 mg/ml in 50 mM phosphate buffer pH 7.0, equal volumes (20 μl each), 37°C, 12 h; residual activity by disc diffusion
T2 construct: purchased Sigma Aldrich
Excerpt: as §2

[14] = Effect of pH on lipopeptide activity; format: physicochemical; details: for Residual activity (%): residual antimicrobial activity
Excerpt: as §2

[15] = Qualitative drop-collapse test; format: physicochemical; details: 2 μl mineral oil, 5 μl lipopeptide (10 μg, dissolved in water), drop shape after 1 min
Procedure: as §3

lipase [16] = details: ref Guo et al. 2012; cited from earlier work
Excerpt: (§6) Antimicrobial lipopeptides have been purified from many bacterial genera including several Streptomyces spp. such as S. violaceus var. aspartocinius (aspartocin), S. griseoflavus (tsushimycin), S. viridochromogens (laspartomycin), S. coelicolor (calcium-dependent antibiotic), S. roseosporus (daptomycin), S. fradiae (A54145), S. parvulus var. parvuli (parvuline) and S. canus (amphomycin) (Schneider et al. [2009]). The present study reports the production of another novel lipopeptide from a Streptomyces sp. The primary structure of lipopeptide was determined using a combination of chemical rea ...

trypsin [17] = molecular target: T1, trypsin; design: purchased Sigma Aldrich; details: ref Guo et al. 2012; cited from earlier work
Excerpt: as §6

T2 sequence (P06873 106-384): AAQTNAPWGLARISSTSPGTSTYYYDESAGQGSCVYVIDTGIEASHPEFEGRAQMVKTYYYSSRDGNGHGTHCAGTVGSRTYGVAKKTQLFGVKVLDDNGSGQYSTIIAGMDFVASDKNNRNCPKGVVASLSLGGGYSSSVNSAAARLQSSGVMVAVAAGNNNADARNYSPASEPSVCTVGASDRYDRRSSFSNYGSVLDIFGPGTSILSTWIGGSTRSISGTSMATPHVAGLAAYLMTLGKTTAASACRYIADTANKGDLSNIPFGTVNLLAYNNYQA

Compound: CC[C@@]1(O)C(=O)OCc2c1cc1n(c2=O)Cc2cc3ccccc3nc2-1 [camptothecin, Camptothecin, reference compound]
- IC50 ([1]; Cricetulus griseus, CHO cells, SRB assay): 0.959 µg/mL (≈ 2.75 µM)

Compound: Nc1ccc([N+](=O)[O-])cc1N [positive mutagen, 4-Nitro-o-phenylenediamine, reference compound]
- number of revertant colonies ([2]; positive control, 20 μg plate^-1, compared with negative control): considerably higher

Compound: ATGSHQ [lipopeptide, novel antimicrobial lipopeptide from Streptomyces amritsarensis; Ala-Thr-Gly-Ser-His-Gln, C-terminal amino acid linked to aliphatic chain -(CH2)7-CH2-(CH3)2-]
- inhibition zone [3]: 17 mm
- antimicrobial activity [4]: did not show activity
- inhibition zone [5]: 15 mm
- inhibition zone [6]: 21 mm
- antimicrobial activity (fungi): did not show activity
- Residual activity (%) (Heat stability assay; 50°C, 1 h): 100%
- Residual activity (%) (Heat stability assay; 60°C, 1 h): 100%
- heat stability (Heat stability assay; 70°C for 1 h): completely stable
- Residual activity (%) (Heat stability assay; 70°C, 1 h): 100%
- Residual activity (%) (Heat stability assay; 80°C, 1 h): 84.2%
- Residual activity (%) (Heat stability assay; 90°C, 15 min): 95.0%
- Residual activity (%) (Heat stability assay; 100°C, 15 min): 86.3%
- loss of activity (Heat stability assay; 100°C, 15 minutes incubation): 13.7%
- Residual activity (%) (Heat stability assay; 121°C, 15 min (304 KPa), autoclaving): 81.8%
- reduction of antimicrobial activity (Heat stability assay; after autoclaving (121°C for 15 min)): 18.2%
- surface tension of water [7]: 37 mN m^−1
- MIC [8]: 15 µg/mL
- MIC [9]: 25 µg/mL
- MIC [10]: 10 µg/mL
- MIC [11]: 45 µg/mL
- inhibition zone (MRSA): 13 mm
- growth inhibition ([1]; 2.5 μg/ml): 2.9%
- growth inhibition ([1]; 6.25 μg/ml): 16.8%
- growth inhibition ([1]; 12.5 μg/ml): 19.25%
- growth inhibition ([1]; 18.75 μg/ml): 23.28%
- growth inhibition ([1]; 25 μg/ml): 28.9%
- stability to lipase (lipase [12]): resistant
- stability to trypsin (trypsin [13]): resistant
- stability to proteinase K (proteinase K): negligible loss in activity
- change in activity profile ([14]; between pH 5.0–9.0): did not show any change
- Residual activity (%) ([14]; pH 2, 1 h/4°C): 0%
- Residual activity (%) ([14]; pH 3, 1 h/4°C): 72.7%
- Residual activity (%) ([14]; pH 4, 1 h/4°C): 84.6%
- Residual activity (%) ([14]; pH 5, 1 h/4°C): 100%
- Residual activity (%) ([14]; pH 6, 1 h/4°C): 100%
- Residual activity (%) ([14]; pH 7, 1 h/4°C): 100%
- Residual activity (%) ([14]; pH 8, 1 h/4°C): 100%
- Residual activity (%) ([14]; pH 9, 1 h/4°C): 100%
- Residual activity (%) ([14]; pH 10, 1 h/4°C): 86.3%
- Residual activity (%) ([14]; pH 11, 1 h/4°C): 68.1%
- Residual activity (%) ([14]; pH 12, 1 h/4°C): 0%
- drop-collapse test [15]: collapsed the oil drop
- mutagenicity ([2]; 50 and 100 μg/0.1 ml per plate, 48 hours at 37°C): non-mutagenic

Compound: paenibacterin
- resistance to lipase (lipase [16]): resistant
- resistance to trypsin (trypsin [17]): resistant
